Test results taken from the supplement of paper PMC10307832.

Legend:
Assay in all cases: relative viability (nuclei count vs DMSO), 5 days (fraction); higher = more cells survive
[1] = compound: Cc1cnc(CNC(=O)c2c(=O)c3ccc(N4CCCN(C)CC4)nc3n3c2sc2ccccc23)cn1 [CX-5461] + COc1cc2c(Oc3ccc(NC(=O)C4(C(=O)Nc5ccc(F)cc5)CC4)cc3F)ccnc2cc1OCCCN1CCOCC1 [Foretinib] (partner 0.25 µM)
Procedure, shortened: (§1)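 Nuclei were stained with Hoechst during a one-step fixation (final 0.05% Triton X-100, 1% formaldehyde, 1 ug/ml Hoechst) carried out 5 days after dosing, then counted on 4× images. The cells, lung cancer lines in 1536-well plates, had been dosed by pin tool the day after seeding with one drug alone or a fixed anchor-drug dose plus five library-drug doses (not always all listed) in √10 steps. Relative viability is the nuclei count in treated wells divided by that in vehicle wells, and each value is the median of duplicate plates.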

[2] = compound: O=C(Nc1cc(C(F)(F)F)cc(C(F)(F)F)c1)c1cc(Cl)ccc1O [IMD-0354] + COc1cccc2cc(-c3nc([C@H]4CC[C@H](C(=O)O)CC4)n4ncnc(N)c34)[nH]c12 [OSI-027] (partner 0.5 µM)
Procedure, shortened: as §1

[3] = compound: O=C(Nc1cc(C(F)(F)F)cc(C(F)(F)F)c1)c1cc(Cl)ccc1O [IMD-0354] + Nc1nc2[nH]cc(CCc3ccc(C(=O)N[C@@H](CCC(=O)O)C(=O)O)cc3)c2c(=O)[nH]1 [Pemetrexed] (partner 0.2 µM)
Procedure, shortened: as §1

[4] = compound: O=C(Nc1cc(C(F)(F)F)cc(C(F)(F)F)c1)c1cc(Cl)ccc1O [IMD-0354] + CS(=O)(=O)CCNCc1ccc(-c2ccc3ncnc(Nc4ccc(OCc5cccc(F)c5)c(Cl)c4)c3c2)o1 [Lapatinib] (partner 2 µM)
Procedure, shortened: as §1

Cell Line	relative viability ([1]; first compound 0.01 µM)	relative viability ([1]; first compound 0.03162 µM)	relative viability ([1]; first compound 0.1 µM)	relative viability ([1]; first compound 0.3162 µM)	relative viability ([1]; first compound 1 µM)	relative viability ([2]; first compound 0.04 µM)	relative viability ([2]; first compound 0.1265 µM)	relative viability ([2]; first compound 0.4 µM)	relative viability ([2]; first compound 1.265 µM)	relative viability ([2]; first compound 4 µM)	relative viability ([3]; first compound 0.04 µM)	relative viability ([3]; first compound 0.1265 µM)	relative viability ([3]; first compound 0.4 µM)	relative viability ([3]; first compound 1.265 µM)	relative viability ([3]; first compound 4 µM)	relative viability ([4]; first compound 0.04 µM)	relative viability ([4]; first compound 0.1265 µM)	relative viability ([4]; first compound 0.4 µM)	relative viability ([4]; first compound 1.265 µM)	relative viability ([4]; first compound 4 µM)
NCI-H2347	0.994	1.11	0.947	0.842	0.849	0.37	0.331	0.42	0.294	0.335	0.387	0.435	0.373	0.365	0.27	0.863	0.972	0.632	0.201	0.434
NCI-H2405	1.03	1.08	1.04	0.952	1.03	0.696	0.601	0.552	0.312	0.307	1.16	0.965	0.49	0.271	0.277	1.38	1.24	0.69	0.243	0.202
NCI-H3122	0.915	0.906	0.941	0.929	0.974	1.08	0.851	0.505	0.223	0.114	0.196	0.211	0.18	0.281	0.15	1.05	0.983	0.747	0.202	0.211
PC-3 [JPC-3]	1.07	1.06	0.984	0.986	1.01	0.845	0.708	0.605	0.344	0.282	1.42	1	1.03	0.305	0.405	0.484	0.434	0.372	0.42	0.199
